Data as given in ChEMBL document CHEMBL4396916, “Novel potent substituted 4-amino-2-thiopyrimidines as dual VEGFR-2 and BRAF kinase inhibitors” (Eur J Med Chem, 2019).

Assays:
[1] = biological target: Serine/threonine-protein kinase B-raf (Homo sapiens, UniProt P15056); experiment: Inhibition of human wild type BRAF by Kinase-Glo luminescence assay
[2] = biological target: Platelet-derived growth factor receptor beta (Homo sapiens, UniProt P09619); experiment: Inhibition of PDGFR beta (unknown origin)
[3] = biological target: Fibroblast growth factor receptor 1 (Homo sapiens, UniProt P11362); experiment: Inhibition of FGFR1 (unknown origin)
Chain of Fibroblast growth factor receptor 1 (P11362 whole entry): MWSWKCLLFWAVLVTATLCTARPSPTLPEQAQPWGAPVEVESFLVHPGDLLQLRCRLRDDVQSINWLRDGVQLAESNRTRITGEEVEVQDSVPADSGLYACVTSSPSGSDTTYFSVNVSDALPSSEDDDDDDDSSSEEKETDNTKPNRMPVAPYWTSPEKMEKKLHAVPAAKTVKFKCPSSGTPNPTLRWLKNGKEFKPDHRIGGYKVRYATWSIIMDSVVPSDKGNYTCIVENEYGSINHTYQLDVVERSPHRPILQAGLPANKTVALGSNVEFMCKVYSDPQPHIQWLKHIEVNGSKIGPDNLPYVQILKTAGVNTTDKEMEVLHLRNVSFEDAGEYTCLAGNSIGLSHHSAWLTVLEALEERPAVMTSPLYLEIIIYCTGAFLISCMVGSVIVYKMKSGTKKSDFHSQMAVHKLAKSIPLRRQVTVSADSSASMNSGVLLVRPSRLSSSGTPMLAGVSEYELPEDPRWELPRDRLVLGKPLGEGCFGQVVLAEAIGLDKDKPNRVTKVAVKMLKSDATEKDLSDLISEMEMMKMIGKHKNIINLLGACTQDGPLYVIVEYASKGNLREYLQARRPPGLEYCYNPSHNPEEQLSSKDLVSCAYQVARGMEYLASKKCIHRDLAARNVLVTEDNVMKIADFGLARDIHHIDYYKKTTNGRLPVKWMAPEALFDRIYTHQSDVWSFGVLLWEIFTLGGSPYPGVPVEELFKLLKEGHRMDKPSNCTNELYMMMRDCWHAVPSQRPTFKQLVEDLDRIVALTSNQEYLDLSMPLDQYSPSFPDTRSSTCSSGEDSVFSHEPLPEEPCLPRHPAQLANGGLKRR

[4] = biological target: Angiopoietin-1 receptor (Homo sapiens, UniProt Q02763); experiment: Inhibition of TIE2 (unknown origin)
Chain of Angiopoietin-1 receptor (Q02763 whole entry): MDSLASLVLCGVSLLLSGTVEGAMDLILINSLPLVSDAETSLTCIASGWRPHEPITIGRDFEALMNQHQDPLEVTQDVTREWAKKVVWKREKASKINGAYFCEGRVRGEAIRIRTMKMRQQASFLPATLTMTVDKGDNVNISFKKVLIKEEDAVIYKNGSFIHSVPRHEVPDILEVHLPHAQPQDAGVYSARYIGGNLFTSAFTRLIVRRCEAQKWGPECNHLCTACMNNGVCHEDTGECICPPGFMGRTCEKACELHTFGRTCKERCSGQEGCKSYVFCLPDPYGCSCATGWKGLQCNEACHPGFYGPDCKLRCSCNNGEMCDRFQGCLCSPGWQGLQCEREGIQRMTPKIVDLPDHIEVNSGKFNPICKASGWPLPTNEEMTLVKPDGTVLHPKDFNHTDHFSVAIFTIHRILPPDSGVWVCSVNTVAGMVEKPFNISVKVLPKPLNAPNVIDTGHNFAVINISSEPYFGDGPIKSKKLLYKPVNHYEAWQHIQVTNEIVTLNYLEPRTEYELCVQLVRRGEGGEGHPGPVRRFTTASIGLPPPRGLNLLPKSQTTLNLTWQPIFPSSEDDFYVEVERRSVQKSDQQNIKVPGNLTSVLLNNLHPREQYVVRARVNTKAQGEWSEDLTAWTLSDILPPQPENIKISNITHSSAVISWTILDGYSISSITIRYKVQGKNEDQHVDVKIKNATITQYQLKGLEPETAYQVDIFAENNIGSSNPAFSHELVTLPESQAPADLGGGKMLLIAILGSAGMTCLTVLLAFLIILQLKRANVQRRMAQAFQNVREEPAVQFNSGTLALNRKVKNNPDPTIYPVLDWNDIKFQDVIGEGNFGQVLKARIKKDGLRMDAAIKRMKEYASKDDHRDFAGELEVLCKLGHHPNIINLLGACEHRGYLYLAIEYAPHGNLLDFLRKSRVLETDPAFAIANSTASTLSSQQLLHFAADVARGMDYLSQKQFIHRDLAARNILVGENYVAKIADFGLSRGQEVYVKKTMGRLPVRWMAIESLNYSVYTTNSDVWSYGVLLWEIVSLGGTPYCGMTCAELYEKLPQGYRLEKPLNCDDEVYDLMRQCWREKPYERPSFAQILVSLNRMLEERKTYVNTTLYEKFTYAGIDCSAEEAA

[5] = biological target: Mast/stem cell growth factor receptor Kit (Homo sapiens, UniProt P10721); experiment: Inhibition of c-kit (unknown origin)
Chain of Mast/stem cell growth factor receptor Kit (P10721 whole entry): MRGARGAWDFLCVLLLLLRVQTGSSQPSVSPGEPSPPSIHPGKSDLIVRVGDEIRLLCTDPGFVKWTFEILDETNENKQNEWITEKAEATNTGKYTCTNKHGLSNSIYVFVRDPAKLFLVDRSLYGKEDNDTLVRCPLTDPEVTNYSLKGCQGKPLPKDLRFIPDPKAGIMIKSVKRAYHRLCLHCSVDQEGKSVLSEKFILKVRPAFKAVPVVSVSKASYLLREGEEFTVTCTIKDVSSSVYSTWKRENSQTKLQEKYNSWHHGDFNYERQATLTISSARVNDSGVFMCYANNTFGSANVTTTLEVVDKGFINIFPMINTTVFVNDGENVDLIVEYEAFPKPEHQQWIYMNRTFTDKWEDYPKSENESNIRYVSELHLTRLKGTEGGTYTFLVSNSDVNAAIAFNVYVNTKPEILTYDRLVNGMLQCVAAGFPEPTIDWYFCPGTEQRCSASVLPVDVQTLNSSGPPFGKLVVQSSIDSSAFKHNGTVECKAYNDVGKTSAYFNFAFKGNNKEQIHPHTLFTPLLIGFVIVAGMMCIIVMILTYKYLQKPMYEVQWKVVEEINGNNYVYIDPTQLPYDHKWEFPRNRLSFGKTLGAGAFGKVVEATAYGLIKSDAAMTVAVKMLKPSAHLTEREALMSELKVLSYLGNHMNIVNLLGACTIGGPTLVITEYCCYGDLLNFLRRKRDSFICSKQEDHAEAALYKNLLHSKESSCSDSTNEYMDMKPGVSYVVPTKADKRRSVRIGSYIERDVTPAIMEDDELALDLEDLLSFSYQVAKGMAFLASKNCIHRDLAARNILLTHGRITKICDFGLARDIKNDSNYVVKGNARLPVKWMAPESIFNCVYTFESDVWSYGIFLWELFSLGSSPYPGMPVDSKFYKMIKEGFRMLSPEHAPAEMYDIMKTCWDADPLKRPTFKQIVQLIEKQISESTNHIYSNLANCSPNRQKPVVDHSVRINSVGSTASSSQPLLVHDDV

[6] = biological target: RAF proto-oncogene serine/threonine-protein kinase (Homo sapiens, UniProt P04049); experiment: Inhibition of RAF1 (unknown origin)
Chain of RAF proto-oncogene serine/threonine-protein kinase (P04049 whole entry): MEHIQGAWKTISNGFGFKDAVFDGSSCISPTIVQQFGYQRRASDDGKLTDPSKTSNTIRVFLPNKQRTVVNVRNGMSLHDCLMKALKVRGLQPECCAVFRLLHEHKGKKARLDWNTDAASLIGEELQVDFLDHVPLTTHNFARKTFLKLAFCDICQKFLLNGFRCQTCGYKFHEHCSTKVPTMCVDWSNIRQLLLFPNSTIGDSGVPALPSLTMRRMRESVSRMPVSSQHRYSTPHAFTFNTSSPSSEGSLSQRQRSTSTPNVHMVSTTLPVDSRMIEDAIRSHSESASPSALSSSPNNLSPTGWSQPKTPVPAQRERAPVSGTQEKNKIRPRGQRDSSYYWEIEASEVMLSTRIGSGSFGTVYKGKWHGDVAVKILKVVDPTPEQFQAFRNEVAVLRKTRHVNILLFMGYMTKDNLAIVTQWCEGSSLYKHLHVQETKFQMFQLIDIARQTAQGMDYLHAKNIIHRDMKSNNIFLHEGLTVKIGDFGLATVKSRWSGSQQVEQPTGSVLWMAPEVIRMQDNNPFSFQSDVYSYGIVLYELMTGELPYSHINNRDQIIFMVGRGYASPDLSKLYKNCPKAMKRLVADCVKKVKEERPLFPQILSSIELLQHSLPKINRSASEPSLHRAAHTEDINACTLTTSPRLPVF

[7] = test system: CCRF-CEM; experiment: Growth inhibition of human CCRF-CEM cells at 10 uM incubated for 48 hrs by sulforhodamine B assay relative to control; assay type: functional; settings: read-out: GI
[8] = test system: K562; experiment: Growth inhibition of human K562 cells at 10 uM incubated for 48 hrs by sulforhodamine B assay relative to control; assay type: functional; settings: K562, 48 h, read-out: GI
[9] = test system: MOLT-4; experiment: Growth inhibition of human MOLT4 cells at 10 uM incubated for 48 hrs by sulforhodamine B assay relative to control; assay type: functional; settings: MOLT-4, 48 h, read-out: GI
[10] = test system: SR; experiment: Growth inhibition of human SR cells at 10 uM incubated for 48 hrs by sulforhodamine B assay relative to control; assay type: functional; settings: read-out: GI
[11] = test system: EKVX; experiment: Growth inhibition of human EKVX cells at 10 uM incubated for 48 hrs by sulforhodamine B assay relative to control; assay type: functional; settings: read-out: GI
[12] = test system: HOP-62; experiment: Growth inhibition of human HOP62 cells at 10 uM incubated for 48 hrs by sulforhodamine B assay relative to control; assay type: functional; settings: HOP-62, 48 h, read-out: GI
[13] = test system: NCI-H226; experiment: Growth inhibition of human NCI-H226 cells at 10 uM incubated for 48 hrs by sulforhodamine B assay relative to control; assay type: functional; settings: NCI-H226, 48 h, read-out: GI
[14] = test system: NCI-H23; experiment: Growth inhibition of human NCI-H23 cells at 10 uM incubated for 48 hrs by sulforhodamine B assay relative to control; assay type: functional; settings: NCI-H23, 48 h, read-out: GI
[15] = test system: NCI-H522; experiment: Growth inhibition of human NCI-H522 cells at 10 uM incubated for 48 hrs by sulforhodamine B assay relative to control; assay type: functional; settings: NCI-H522, 48 h, read-out: GI
[16] = test system: HCT-116; experiment: Growth inhibition of human HCT116 cells at 10 uM incubated for 48 hrs by sulforhodamine B assay relative to control; assay type: functional; settings: HCT-116, 48 h, read-out: GI
[17] = test system: SF-268; experiment: Growth inhibition of human SF268 cells at 10 uM incubated for 48 hrs by sulforhodamine B assay relative to control; assay type: functional; settings: SF-268, 48 h, read-out: GI
[18] = test system: SNB-19; experiment: Growth inhibition of human SNB19 cells at 10 uM incubated for 48 hrs by sulforhodamine B assay relative to control; assay type: functional; settings: SNB-19, 48 h, read-out: GI
[19] = test system: U-251; experiment: Growth inhibition of human U251 cells at 10 uM incubated for 48 hrs by sulforhodamine B assay relative to control; assay type: functional; settings: U-251, 48 h, read-out: GI
[20] = test system: Malme-3M; experiment: Growth inhibition of human MALME-3M cells at 10 uM incubated for 48 hrs by sulforhodamine B assay relative to control; assay type: functional; settings: read-out: GI
[21] = test system: SK-MEL-28; experiment: Growth inhibition of human SK-MEL-28 cells at 10 uM incubated for 48 hrs by sulforhodamine B assay relative to control; assay type: functional; settings: SK-MEL-28, 48 h, read-out: GI
[22] = test system: SK-MEL-5; experiment: Growth inhibition of human SK-MEL-5 cells at 10 uM incubated for 48 hrs by sulforhodamine B assay relative to control; assay type: functional; settings: SK-MEL-5, 48 h, read-out: GI
[23] = test system: UACC-257; experiment: Growth inhibition of human UACC257 cells at 10 uM incubated for 48 hrs by sulforhodamine B assay relative to control; assay type: functional; settings: UACC-257, 48 h, read-out: GI
[24] = test system: UACC-62; experiment: Growth inhibition of human UACC62 cells at 10 uM incubated for 48 hrs by sulforhodamine B assay relative to control; assay type: functional; settings: UACC-62, 48 h, read-out: GI
[25] = test system: OVCAR-3; experiment: Growth inhibition of human OVCAR3 cells at 10 uM incubated for 48 hrs by sulforhodamine B assay relative to control; assay type: functional; settings: OVCAR-3, 48 h, read-out: GI
[26] = test system: OVCAR-8; experiment: Growth inhibition of human OVCAR8 cells at 10 uM incubated for 48 hrs by sulforhodamine B assay relative to control; assay type: functional; settings: OVCAR-8, 48 h, read-out: GI
[27] = test system: NCI/ADR-RES; experiment: Growth inhibition of human NCI/ADR-RES cells at 10 uM incubated for 48 hrs by sulforhodamine B assay relative to control; assay type: functional; settings: read-out: GI
[28] = test system: A498; experiment: Growth inhibition of human A498 cells at 10 uM incubated for 48 hrs by sulforhodamine B assay relative to control; assay type: functional; settings: A498, 48 h, read-out: GI
[29] = test system: CAKI-1; experiment: Growth inhibition of human Caki1 cells at 10 uM incubated for 48 hrs by sulforhodamine B assay relative to control; assay type: functional; settings: CAKI-1, 48 h, read-out: GI
[30] = test system: UO-31; experiment: Growth inhibition of human UO31 cells at 10 uM incubated for 48 hrs by sulforhodamine B assay relative to control; assay type: functional; settings: UO-31, 48 h, read-out: GI
[31] = test system: PC-3; experiment: Growth inhibition of human PC3 cells at 10 uM incubated for 48 hrs by sulforhodamine B assay relative to control; assay type: functional; settings: PC-3, 48 h, read-out: GI
[32] = test system: DU-145; experiment: Growth inhibition of human DU145 cells at 10 uM incubated for 48 hrs by sulforhodamine B assay relative to control; assay type: functional; settings: DU-145, 48 h, read-out: GI
[33] = test system: MCF7; experiment: Growth inhibition of human MCF7 cells at 10 uM incubated for 48 hrs by sulforhodamine B assay relative to control; assay type: functional; settings: MCF7, 48 h, read-out: GI
[34] = test system: MDA-MB-231; experiment: Growth inhibition of human MDA-MB-231 cells at 10 uM incubated for 48 hrs by sulforhodamine B assay relative to control; assay type: functional; settings: MDA-MB-231, 48 h, read-out: GI
[35] = test system: T47D; experiment: Growth inhibition of human T47D cells at 10 uM incubated for 48 hrs by sulforhodamine B assay relative to control; assay type: functional; settings: read-out: GI
[36] = test system: MDA-MB-468; experiment: Growth inhibition of human MDA-MB-468 cells at 10 uM incubated for 48 hrs by sulforhodamine B assay relative to control; assay type: functional; settings: MDA-MB-468, 48 h, read-out: GI
[37] = test system: MCF7; experiment: Cytotoxicity against human MCF7 cells expressing VEGFR2 and wild type BRAF measured after 48 hrs by sulforhodamine B assay; assay type: functional, cell-based; settings: MCF7, 48 h
[38] = test system: MCF7; experiment: Inhibition of VEGFR2 level in human MCF7 cells at 10 uM measured after 48 hrs by ELISA relative to control; assay type: functional; settings: MCF7, 48 h

Chain of Serine/threonine-protein kinase B-raf (P15056 whole entry): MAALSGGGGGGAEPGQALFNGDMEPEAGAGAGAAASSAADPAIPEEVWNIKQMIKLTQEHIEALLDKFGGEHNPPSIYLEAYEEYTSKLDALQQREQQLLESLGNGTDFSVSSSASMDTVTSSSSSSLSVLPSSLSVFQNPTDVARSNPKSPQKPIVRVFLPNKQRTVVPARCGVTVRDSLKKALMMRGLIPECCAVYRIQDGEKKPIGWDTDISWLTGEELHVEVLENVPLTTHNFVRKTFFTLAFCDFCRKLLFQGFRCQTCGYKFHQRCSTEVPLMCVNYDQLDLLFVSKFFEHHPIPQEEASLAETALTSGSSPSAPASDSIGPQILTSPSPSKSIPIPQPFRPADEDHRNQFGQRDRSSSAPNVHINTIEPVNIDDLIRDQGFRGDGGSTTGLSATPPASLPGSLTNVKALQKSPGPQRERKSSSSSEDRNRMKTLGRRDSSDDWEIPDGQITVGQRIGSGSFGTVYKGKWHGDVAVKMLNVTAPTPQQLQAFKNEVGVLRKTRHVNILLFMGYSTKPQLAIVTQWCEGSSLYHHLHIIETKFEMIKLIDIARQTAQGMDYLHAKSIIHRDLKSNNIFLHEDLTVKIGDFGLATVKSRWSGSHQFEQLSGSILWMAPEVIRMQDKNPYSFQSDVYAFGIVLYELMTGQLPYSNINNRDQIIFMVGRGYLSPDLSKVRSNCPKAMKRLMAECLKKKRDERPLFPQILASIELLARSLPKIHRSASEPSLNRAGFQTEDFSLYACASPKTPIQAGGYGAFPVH

SMILES	IC50 [1] [nM]	IC50 [2] [nM]	IC50 [3] [nM]	IC50 [4] [nM]	IC50 [5] [nM]	IC50 [6] [nM]	inhibition of growth at 10 µM [7] [%]	inhibition of growth at 10 µM [8] [%]	inhibition of growth at 10 µM [9] [%]	inhibition of growth at 10 µM [10] [%]	inhibition of growth at 10 µM [11] [%]	inhibition of growth at 10 µM [12] [%]	inhibition of growth at 10 µM [13] [%]	inhibition of growth at 10 µM [14] [%]	inhibition of growth at 10 µM [15] [%]	inhibition of growth at 10 µM [16] [%]	inhibition of growth at 10 µM [17] [%]	inhibition of growth at 10 µM [18] [%]	inhibition of growth at 10 µM [19] [%]	inhibition of growth at 10 µM [20] [%]	other results
O=C(CSc1nccc(Nc2ccc(N3CCOCC3)cc2)n1)c1ccc(F)cc1	110	150	130	480	250	130	19	28	25	18	23	69	45	21	49	32	35	37	16	29	inhibition of growth at 10 µM [21]: 19%; inhibition of growth at 10 µM [22]: 37%; inhibition of growth at 10 µM [23]: 19%; inhibition of growth at 10 µM [24]: 28%; inhibition of growth at 10 µM [25]: 18%; inhibition of growth at 10 µM [26]: 62%; inhibition of growth at 10 µM [27]: 26%; inhibition of growth at 10 µM [28]: 36%; inhibition of growth at 10 µM [29]: 41%; inhibition of growth at 10 µM [30]: 27%; inhibition of growth at 10 µM [31]: 27%; inhibition of growth at 10 µM [32]: 16%; inhibition of growth at 10 µM [33]: 31%; inhibition of growth at 10 µM [34]: 22%; inhibition of growth at 10 µM [35]: 34%; inhibition of growth at 10 µM [36]: 38%; IC50 [37]: 26900 nM; inhibition at 10 µM [38]: 33%
CCOC(=O)c1ccc(Nc2ccnc(SCC(=O)c3ccc(C#N)cc3)n2)cc1	150	390	280	1390	5160	410	82	49	84	46	26	37	38	20	73	28	22	10	15	19	inhibition of growth at 10 µM [21]: 19%; inhibition of growth at 10 µM [22]: 62%; inhibition of growth at 10 µM [23]: 22%; inhibition of growth at 10 µM [24]: 61%; inhibition of growth at 10 µM [25]: 21%; inhibition of growth at 10 µM [26]: 77%; inhibition of growth at 10 µM [27]: 58%; inhibition of growth at 10 µM [28]: 50%; inhibition of growth at 10 µM [29]: 43%; inhibition of growth at 10 µM [30]: 52%; inhibition of growth at 10 µM [31]: 60%; inhibition of growth at 10 µM [32]: 21%; inhibition of growth at 10 µM [33]: 33%; inhibition of growth at 10 µM [34]: 19%; inhibition of growth at 10 µM [35]: 90%; inhibition of growth at 10 µM [36]: 52%; IC50 [37]: 13000 nM; inhibition at 10 µM [38]: 84%
